Laboratory results: patent EP3255433A1, “METHODS USING BLM AS A MARKER OF MULTIPLE MYELOMA” (priority 2016, dated 2017)
Read-outs that look alike come from different tables or passages of the source.

Key:
[1] = tested on: primary myeloma cells of patients; assay: Cytotoxicity on primary myeloma cells of patients (CD138 flow cytometry); assay type: cell-based, human; settings: 4 days, IL-6 (1 ng/mL), co-cultured with bone marrow environment, n=7
Source text: (§1) • Figure 1: BLM expression in normal and malignant plasma cells. BLM expression in normal BMPCs (N = 5), in MM cells of patients with intramedullary MM (N = 206) and in HMCLs (N = 26). Ordinate : BLM expression, as expressed in Affimetrix signal arbitrary units. Abscissa : from left to right : BMPCs (n=5); MMCs (n=206) and HMCLs (n=26). • Figure 2: BLM gene expression in the 7 MM molecular subgroups of the TT2-cohort. PR = proliferation, LB = low bone disease, MS = MMSET, HY = hyperdiploid, CD1 = cyclin D1/D3, CD2 = cyclin D1/D3, MF = MAF. * indicates higher score value compared to all other groups with P<0.05. Ordinate : BLM expression, as expressed in Affimetrix signal arbitrary units. Abscissa : from left to right: PR, LB, MS, HY, CD1, CD2 and MF . • Figure 3: BLM expression in MMCs could predict for shorter overall and event free survival in independent cohorts of patients. • Figure 3A : Patients of the HM cohort (n = 206) were ranked according to increasing BLM expression and a maximum difference in overall survival (OS) was obtained using the Maxstat R function. Upper curve : BLM^Low; Lower curve : BLM^High. Ordinate : Overall Survival (OS). Abscissa : Days from diagnosis. • Figure 3B : BLM expression is also associated with a shorter event free survival (EFS) in the HM cohort (n = 206). Upper curve : BLM^Low; Lower curve : BLM^High. Ordinate : Effective Survival (EFS)). […] At day 4 of culture, the viability was assessed by CellTiter-Glo® Luminescent Cell Viability Assay. […] Data are mean values ± standard deviation (SD) of five experiments determined on sextuplet culture wells. • Figure 4A : Growth inhibition of a plurality of MM cell lines in the presence of the ML216 BLM inhibitor. Ordinate : cell growth inhibition, as expressed as percent of control cells without ML216 :Cell lines tested : □ XG1 cells; ◊ XG7 cells; ○ XG12 cells; ◆XG25 cells; ● XG19 cells; + LP1 cells. […] At day 4 of culture, the viability and total cell counts were assessed and the percentage of CD138 viable plasma and non-myeloma cells was determined by flow cytometry. […]

[2] = tested on: human myeloma cell lines (HMCL); assay: Cell growth inhibition of human myeloma cell lines (CellTiter-Glo Luminescent Cell Viability Assay); assay type: cell-based; settings: 96 h, 4 days culture, 2 ng/ml interleukin six
Source text: as §1, with “units.” for “units. Abscissa : from left to right: PR, LB, MS, HY, CD1, CD2 and MF . • Figure 3: BLM expression in MMCs could predict for shorter overall and event free survival in independent cohorts of patients. • Figure 3A : Patients of the HM cohort (n = 206) were ranked according to increasing BLM expression and a maximum difference in overall survival (OS) was obtained using the Maxstat R function. Upper curve : BLM^Low; Lower curve : BLM^High. Ordinate : Overall Survival (OS). Abscissa : Days from diagnosis. • Figure 3B : BLM expression is also associated with a shorter event free survival (EFS) in the HM cohort (n = 206). Upper curve : BLM^Low; Lower curve : BLM^High. Ordinate : Effective Survival (EFS)).”

- IC50 ([2]; median over 6 HMCL (XG-1, XG-7, XG-12, XG-25, XG-19, LP1), read-out: median IC50): 4.1 µM
- IC50 ([2]; range over 6 HMCL, read-out: IC50 (range)): 1.2 to 30 µM
Compound: O=C(Nc1ccc(F)c(C(F)(F)F)c1)Nc1nnc(-c2ccncc2)s1 [ML216]
- reduction of the median number of viable myeloma cells ([1]; 3 µM, P = 0.001): 54%
- reduction of the median number of viable myeloma cells ([1]; 6 µM, P < 0.001): 60%
- reduction of the median number of viable myeloma cells ([1]; 10 µM, P <0.001): 74%
